Data on two molecules can be found in patent US7176352B1, “Transgenic Lemnaceae” (Yeda Research and Development Company Ltd., priority 1997, dated 2007).

In assay [1] the test system is Spirodela punctata plants. The experiment in a line: GUS expression of transformed plants grown on kanamycin or BASTA supplemented SP medium. The assay is classed as in vivo. The conditions noted are these: supplement 2 μg/ml in SP medium, 2 to 5 weeks. On the procedure:
The method involved wounding plants, co-cultivating them with 5×10^8 bacteria ml^−1 (A. tumefaciens strain EHA105 harboring Ti plasmid pME504) for 30 min. and vacuum infiltration (30 mbar, for 5–10 min). Transformed Spirodela punctata plants were grown in SP medium (Table 2) supplemented with 2 μg/ml kanamycin for 2 to 5 weeks. Six green plants resistant to kanamycin, and a sampling of bleached ones, were assayed for GUS expression.

Assay [2] deals with Calli of Spirodela punctata var. Helgm. The assay can be described thus: Regeneration of plants from Spirodela calli. It is filed as in vivo. The conditions noted are these: B-5 medium, 1% sucrose, scored after 2 weeks; for Regenerating calli No.: 30 calli. How it is done:
Spirodela calli were maintained on B-5 medium (Table 6 below) supplemented with 1.0% sucrose, 3 mg/l 2IP and 10 mg/l 2,4-D. For regeneration, calli were transferred to B-5 medium supplemented with 1,0% sucrose and 2 mg/l 2IP. Fully regenerated S. punctata plants were efficiently obtained within 1–2 weeks. Spirodela calli and the regenerated plants, were grown at 26° C. under continuous fluorescent light (30 μE m^−2s^−1).
Calli of Spirodela punctata var. Helgm, maintained for 7 to 16 weeks on B-5 medium supplemented with 1% sucrose, […] 2IP and 10 mg/l 2,4-D, were transferred to B-5 medium supplemented with 1% sucrose and different concentrations of 2IP. Regenerated plants were visually scored after 2 weeks.

As to `NC[C@H]1O[C@H](O[C@H]2[C@H](O)[C@@H](O[C@H]3O[C@H](CO)[C@@H](O)[C@H](N)[C@H]3O)[C@H](N)C[C@@H]2N)[C@H](O)[C@@H](O)[C@@H]1O` [Kanamycin], the “GUS expression (% fronds) Bleached plants” value in assay [1] (bleached plants) turned out to be 0 % fronds. Further, in assay [1] (green resistant plants), the “GUS expression (% fronds) Green plants” value was 83 % fronds.
As to `CC(C)=CCNc1ncnc2nc[nH]c12` [2 IP], in assay [2] (2 IP 2 mg/l), the “Regenerating calli (%)” value amounted to 73% and the “Regenerating calli No.” value is given as 22. In assay [2] (2 IP 10 mg/l), the “Regenerating calli (%)” value stood at 0% and the “Regenerating calli No.” value was determined as 0.
